How the values were obtained:
CD22 = assay: Immunofluorescent staining of CD22 in permeabilized leukemia cells; assay type: cell-based, human; settings: 24 hours after exposure, 1 nM
Protocol: FIGS. 10A-10E: (FIG. 10A) Three cell lines (Toldeo, Kopn8 and Nalm6) were co-incubated with Bryostatin 1 at varying concentrations for 24 hours. At 24 hours, cells were collected for protein kinase C (PKC)-βII isoform analysis by western blot. (FIG. 10B) KOPN8 or SEM cell lines were exposed to Bryostatin 1 for 16, 24, 48 or 72 hours. RNA was extracted from cells and analyzed using RNAseq. (FIG. 10C) Immunofluorescent staining of CD22 was conducted through permeabilization followed by staining of CD22. (FIG. 10D) Four cell lines were co-incubated with various combinations of Enzastaurin (10 μM), Staurosporine (100 μM), or Bryostatin 1 (1 nM) for 24 hours. CD22 expression was assessed using flow cytometry. MFI fold change=CD22 MFI^Bryostatin1/CD22 MFI^DMSO. (FIG. 10E) Cell lines were co-incubated with 1 nM Bryostatin 1 for 24 hours and measured for CD22 expression using CD22-PE antibody. MFI fold change=CD22 MFI^Bryostatin 1/CD22 MFI^DMSO.
μ-dish 35 mm, high glass bottom dishes (Ibidi Inc, Madison, WI) were coated with poly-D-lysine for 2 hours and then seeded with 5×10^5 leukemia cells, which had been pre-treated with either 1 nM Bryostatin 1 or DMSO control for 24 hours. Approximately 12 hours after seeding, cells were fixed in 4% paraformaldehyde and then permeabilized with 0.2% Triton X-100 detergent. […]

[1] = tested on: CD22^neg, CD22^lo or Nalm6 cells; assay: In vitro leukemia clearance assay (IncuCyte, loss of GFP-positive cells); assay type: cell-based, human; settings: effector-to-target 1:1
Protocol: Cell death was monitored by loss of GFP-positive cells using Incucyte analysis. (FIG. 2B) NSG mice were injected with 1×10^6 GPF-positive CD22neg, CD22lo, or Nalm6 tumor cells on Day 0. […] Mice were imaged using IVIS technology after luciferin-D IP injection. […] Cells were stained for flow cytometry and analyzed on a Fortessa flow machine. (FIG. 2E) Site density cell lines were co-incubated with CD22 CART for 24 hours, and PD1 expression was stained for flow cytometry and analyzed on Fortessa flow machine. MFI=mean fluorescence intensity. […] (FIG. 2G) CD22 site density was evaluated using flow cytometry and Quantibrite analysis for CRISPR-edited Nalm6 cell lines.
FIGS. 5A-5D: (FIGS. 5A-5B) CD22 CART cells were co-incubated with 1 ng/ml of Bryostatin 1 for 24 hours and washed. […] IFN-γ (FIG. 5A) and granzyme B (FIG. 5B) were measured by ELISA from cell culture supernatants. Statistical analysis was performed using an unpaired t-test (**** p<0.0001, *** p<0.0002, ** p<0.0021, * p<0.0332). […] Cell death was monitored by loss of GFP-positive cells using Incucyte analysis. (FIG. 5D) NSG mice were injected with Nalm6 on Day 0, CD22 CART cells on Day 3, and then were given either DMSO control or Bryostatin 1 at 0.8 μg/kg once weekly for 2 weeks. Leukemia progression was monitored using IVIS technology and luciferin-D IP injections. […]

`CCC/C=C/C=C/C(=O)O[C@H]1/C(=C/C(=O)OC)C[C@H]2C[C@H]([C@@H](C)O)OC(=O)C[C@H](O)C[C@@H]3C[C@H](OC(C)=O)C(C)(C)[C@](O)(C[C@@H]4C/C(=C/C(=O)OC)C[C@H](/C=C/C(C)(C)[C@]1(O)O2)O4)O3` [Bryostatin 1] was tested, and the “vacuolated CD22 compared to DMSO controls” value (CD22) was “less vacuolated CD22” and the “kinetics of leukemic clearance in vitro by drug-exposed CAR T cells” value [1] was “no change”.

Reference: US11939377B2, “Affinity matured CD22-specific monoclonal antibody and uses thereof” (The U.S.A., as represented by the Secretary, Department of …, priority 2018, dated 2024)
